Here are results for eight molecules from PubChem BioAssay AID248 (DTP/NCI, 2004).

The subject of this experiment is L1210 leukemia ip in BDF1 mice, survival T/C. The experiment can be described thus: NCI In Vivo Anticancer Drug Screen. Data for tumor model L1210 Leukemia (intraperitoneal) in B6D2F1 (BDF1) mice. The following applies: endpoint: mean survival time, higher = longer survival. The procedure, abridged:
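Transplantable tumor model; survival measured in treated vs vehicle control mice. Value = treated/control.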

[1] abbreviates: dose: 25.0 mg/kg/injection, schedule: Q04DX003 (ip), vehicle: saline.
Setting [2] is: dose: 200.0 mg/kg/injection, schedule: Q01DX009 (ip), vehicle: Klucel (hydroxypropylcellulose) (HPC).
[3] abbreviates: dose: 100.0 mg/kg/injection, schedule: Q01DX009 (ip), vehicle: Klucel (hydroxypropylcellulose) (HPC).
Where [4] appears, read: dose: 400.0 mg/kg/injection, schedule: Q01DX009 (ip), vehicle: Klucel (hydroxypropylcellulose) (HPC).

Molecules are shown by their SMILES. Values joined by “and” are separate entries in the source; they are usually repeats but may differ in a detail not shown here. Equal values may be shown once. Inconclusive results and toxic doses are left out.

In the case of `O/N=c1/ccn(O)c2ccccc12`, the T/C is 114 % of control (dose: 0.5 mg/kg/injection, schedule: Q03HX008 (ip), vehicle: other); 111 % of control and 119 % of control (dose: 0.51 mg/kg/injection, schedule: Q01DX009 (ip), vehicle: saline); 116 % of control (dose: 0.78 mg/kg/injection, schedule: Q01DX009 (ip), vehicle: saline); 114 % of control (dose: 1.0 mg/kg/injection, schedule: Q01DX009 (sc), vehicle: other); 110 % of control (dose: 1.17 mg/kg/injection, schedule: Q01DX009 (ip), vehicle: saline); 108 % of control (dose: 1.7 mg/kg/injection, schedule: Q01DX015 (ip), vehicle: saline). The T/C was 113 % of control (dose: 2.0 mg/kg/injection, schedule: Q01DX009 (sc), vehicle: other); 122 % of control (dose: 2.0 mg/kg/injection, schedule: Q01DX015 (ip), vehicle: saline); 151 % of control (dose: 2.0 mg/kg/injection, schedule: Q03HX008 (ip), vehicle: other); 118 % of control (dose: 4.0 mg/kg/injection, schedule: Q01DX001 (sc), vehicle: other); 88 % of control (dose: 4.0 mg/kg/injection, schedule: Q01DX009 (ip), vehicle: other); 98 % of control (dose: 4.0 mg/kg/injection, schedule: Q01DX009 (oral), vehicle: other). Further, the T/C reads like this: (dose: 4.0 mg/kg/injection, schedule: Q01DX009 (sc), vehicle: other) 104 % of control; (dose: 4.0 mg/kg/injection, schedule: Q03HX016 (ip), vehicle: other) 87 % of control; (dose: 4.4 mg/kg/injection, schedule: Q01DX001 (ip), vehicle: other) 113 % of control; (dose: 6.0 mg/kg/injection, schedule: Q01DX015 (ip), vehicle: saline) 123 % of control; (dose: 6.6 mg/kg/injection, schedule: Q01DX001 (ip), vehicle: other) 113 % of control; (dose: 8.0 mg/kg/injection, schedule: Q01DX001 (ip), vehicle: other) 108 % of control. Further, the T/C (dose: 8.0 mg/kg/injection, schedule: Q01DX001 (oral), vehicle: other) was 102 % of control; the T/C (dose: 8.0 mg/kg/injection, schedule: Q01DX001 (sc), vehicle: other) was 108 % of control; the T/C (dose: 8.0 mg/kg/injection, schedule: Q01DX005 (ip), vehicle: other) is 93 % of control; the T/C (dose: 8.0 mg/kg/injection, schedule: Q01DX009 (oral), vehicle: other) is 108 % of control; the T/C (dose: 8.0 mg/kg/injection, schedule: Q01DX009 (sc), vehicle: other) was 120 % of control; the T/C (dose: 8.0 mg/kg/injection, schedule: Q04DX003 (ip), vehicle: other) was 110 % of control. Further, the T/C (dose: 8.0 mg/kg/injection, schedule: Q08DX002 (ip), vehicle: other) is 114 % of control; the T/C (dose: 9.0 mg/kg/injection, schedule: Q01DX015 (ip), vehicle: saline) is 87 % of control; the T/C (dose: 16.0 mg/kg/injection, schedule: Q01DX001 (oral), vehicle: other) was 103 % of control; the T/C (dose: 16.0 mg/kg/injection, schedule: Q01DX001 (sc), vehicle: other) was 96 % of control; the T/C (dose: 16.0 mg/kg/injection, schedule: Q01DX009 (oral), vehicle: other) was 103 % of control; the T/C under setting [1] is 88 % of control. For the same molecule, the T/C is, setting by setting: (dose: 32.0 mg/kg/injection, schedule: Q01DX001 (oral), vehicle: other) 113 % of control; (dose: 32.0 mg/kg/injection, schedule: Q01DX001 (sc), vehicle: other) 118 % of control; (dose: 32.0 mg/kg/injection, schedule: Q01DX009 (oral), vehicle: other) 103 % of control; (dose: 40.0 mg/kg/injection, schedule: Q01DX001 (ip), vehicle: other) 109 % of control; (dose: 64.0 mg/kg/injection, schedule: Q01DX001 (oral), vehicle: other) 104 % of control; (dose: 80.0 mg/kg/injection, schedule: Q01DX001 (ip), vehicle: other) 89 % of control. Under “dose: 128.0 mg/kg/injection, schedule: Q01DX001 (oral), vehicle: other”, the T/C was 103 % of control.

Take `O=C1c2cc([N+](=O)[O-])ccc2-c2cccc(F)c21`: the T/C is, setting by setting: (dose: 100.0 mg/kg/injection, schedule: Q04DX003 (ip), vehicle: acetone) 102 % of control; (dose: 200.0 mg/kg/injection, schedule: Q04DX003 (ip), vehicle: acetone) 94 % of control; (dose: 400.0 mg/kg/injection, schedule: Q04DX003 (ip), vehicle: acetone) 109 % of control.

On to `COc1cc2c(c(OC)c1OC)-c1ccc(SC)c(=O)cc1C(N(C)C)CC2` (centres undefined), for which, under setting [2], the T/C is 93 % of control.

On to `CS/C(=C\C(=O)c1ccccc1)C(=O)O`, for which the T/C is 110 % of control (dose: 100.0 mg/kg/injection, schedule: Q04DX002 (ip), vehicle: saline); 100 % of control (dose: 200.0 mg/kg/injection, schedule: Q04DX002 (ip), vehicle: saline); 100 % of control (dose: 400.0 mg/kg/injection, schedule: Q04DX002 (ip), vehicle: saline).

On to `CCOC(=O)N1CC2CCC(C1)N2C`, for which the T/C by setting is: (dose: 12.5 mg/kg/injection, schedule: Q04DX003 (ip), vehicle: saline) 103 % of control; under setting [1], 106 % of control; (dose: 50.0 mg/kg/injection, schedule: Q04DX003 (ip), vehicle: saline) 101 % of control.

Consider `CC(C)(c1cc(Br)c(O)c(Br)c1)c1cc(Br)c(O)c(Br)c1`, for which the T/C runs as follows: under setting [3], 93 % of control; (dose: 100.0 mg/kg/injection, schedule: Q04DX003 (ip), vehicle: Klucel (hydroxypropylcellulose) (HPC)) 100 % of control; under setting [2], 94 % of control; (dose: 200.0 mg/kg/injection, schedule: Q04DX003 (ip), vehicle: Klucel (hydroxypropylcellulose) (HPC)) 92 % of control; under setting [4], 91 % of control; (dose: 400.0 mg/kg/injection, schedule: Q04DX003 (ip), vehicle: Klucel (hydroxypropylcellulose) (HPC)) 103 % of control.

On to `COc1ccc(C[n+]2cc([O-])on2)cc1`, for which the T/C was 101 % of control (dose: 12.5 mg/kg/injection, schedule: Q01DX001 (ip), vehicle: Klucel (hydroxypropylcellulose) (HPC)); 104 % of control (dose: 12.5 mg/kg/injection, schedule: Q04DX003 (ip), vehicle: Klucel (hydroxypropylcellulose) (HPC)); 99 % of control (dose: 25.0 mg/kg/injection, schedule: Q01DX001 (ip), vehicle: Klucel (hydroxypropylcellulose) (HPC)); 104 % of control (dose: 25.0 mg/kg/injection, schedule: Q04DX003 (ip), vehicle: Klucel (hydroxypropylcellulose) (HPC)); 114 % of control (dose: 28.75 mg/kg/injection, schedule: Q01DX009 (ip), vehicle: Klucel (hydroxypropylcellulose) (HPC)); 99 % of control (dose: 50.0 mg/kg/injection, schedule: Q01DX001 (ip), vehicle: Klucel (hydroxypropylcellulose) (HPC)). The T/C is 104 % of control (dose: 50.0 mg/kg/injection, schedule: Q04DX003 (ip), vehicle: Klucel (hydroxypropylcellulose) (HPC)); 103 % of control (dose: 57.5 mg/kg/injection, schedule: Q01DX009 (ip), vehicle: Klucel (hydroxypropylcellulose) (HPC)); 106 % of control (dose: 75.0 mg/kg/injection, schedule: Q04DX003 (ip), vehicle: other); 102 % of control (dose: 100.0 mg/kg/injection, schedule: Q01DX001 (ip), vehicle: Klucel (hydroxypropylcellulose) (HPC)); 120 % of control (dose: 115.0 mg/kg/injection, schedule: Q01DX009 (ip), vehicle: Klucel (hydroxypropylcellulose) (HPC)); 87 % of control (dose: 115.0 mg/kg/injection, schedule: Q04DX003 (ip), vehicle: other). Also, the T/C (dose: 400.0 mg/kg/injection, schedule: Q01DX001 (ip), vehicle: Klucel (hydroxypropylcellulose) (HPC)) is 108 % of control.

Take `CC(=O)c1cccc(NC(=O)Oc2ccc3c(C)cc(=O)oc3c2)c1`: the T/C by setting is: under setting [3], 98 % of control; under setting [2], 101 % of control; under setting [4], 101 % of control.
